For this assay, the system named is Plasmodium berghei. Put plainly: Luciferase/luciferin-expressing antifolate-resistant parasites were used to infect a culture of HepG2 cells that were pre-incubated with compounds. Infected hepatocytes emit light due to the luciferase reaction. Assay results are presented as the percent inhibition of light emission compared to control. […]. Format: functional. To be noted: sporozoite; for IC90: read-out: LUCIFERASE INFECTION ASSAY - IC90.

Where [1] appears, read: read-out: LUCIFERASE INFECTION ASSAY - IC50.

Each structure is given as a SMILES string.

With `COc1ccccc1NC(=O)Nc1nc(C(N)CCc2ccccc2)cs1` (configuration not stated), the 90% effect concentration (IC90) (as a rule, the point of the concentration-response curve where the effect stands at 90%) is over 8.63 µM. For the same compound, where the note is “PBLUC_HILL_SLOPE 2.77, PBLUC_R_SQUARED 0.721, read-out: LUCIFERASE INFECTION ASSAY - IC50”, the IC50 – broadly, the point on the concentration scale where inhibition reaches its midpoint – was determined as 5.07 µM.

For the compound `O=C(CCc1c[nH]c2ccccc12)Nc1ccc(N2CCc3sccc3C2)nc1`, the concentration for an effect of 90% (IC90) is over 10 µM. For the same compound, the IC50 under setting [1] came to 8.67 µM.

With `Cn1nc(C(F)(F)F)cc1-c1ccc(/C=C(\C#N)S(=O)(=O)c2ccc(Cl)cc2)s1`, the IC90 was over 7.21 µM. In addition, for the setting “FFLUC_HILL_SLOPE 11.9, FFLUC_R_SQUARED 0.391, read-out: LUCIFERASE INFECTION ASSAY - IC50”, the IC50 is over 7.21 µM.

Regarding `CC(C)c1ccc(N(C(=O)CC(c2ccccc2)c2ccccc2)c2nc3ccccc3s2)cc1`, the IC90 is over 10 µM. The IC50 under setting [1] is over 10 µM.

In the case of `O=C(Cn1ncc(Cl)c(Cl)c1=O)N1N=C(c2ccco2)CC1c1cccs1` (configuration not stated), the concentration for an effect of 90% (IC90) is over 10 µM. Moreover, where the note is “FFLUC_HILL_SLOPE 1.67, FFLUC_R_SQUARED 0.501, PBLUC_HILL_SLOPE 2.36, PBLUC_R_SQUARED 0.757, read-out: LUCIFERASE INFECTION ASSAY - IC50”, the half-maximal inhibitory concentration (IC50) is 4.46 µM.

Take `O=C(Nc1nc2c(s1)CCCC2)c1c[nH]c(=S)n1-c1ccccc1`: the IC90 was over 10 µM. Further, the IC50 under setting [1] was over 10 µM.

In the case of `Cc1cc(C2=NNC(=NC3CC3)SC2)c(C)n1-c1ccc2c(c1)OCO2`, the IC90 stood at 9.71 µM. Moreover, under “FFLUC_HILL_SLOPE 2.46, FFLUC_R_SQUARED 0.719, PBLUC_HILL_SLOPE 1.67, PBLUC_R_SQUARED 0.595, read-out: LUCIFERASE INFECTION ASSAY - IC50”, the concentration for half-maximal inhibition (IC50) was determined as 2.61 µM.

Take `COc1cc(-c2cnc3sc(NCC4CCOCC4)nn23)ccc1O`: the IC90 is over 9.16 µM. In addition, the IC50 under setting [1] is over 9.16 µM.

For the compound `CC(C)OC(=O)c1nnsc1S(=O)(=O)c1ccc(Cl)cc1`, the IC90 was over 9.52 µM. For the same compound, the IC50 under setting [1] was over 9.52 µM.

For the compound `O=C(COCc1nc2ccccc2s1)NCc1ccc(Cn2cccn2)cc1`, the IC90 is over 10 µM. The IC50 under setting [1] was over 10 µM.

As for `CCc1c(C)sc2nc(SCC(=O)c3cc(C)n(-c4ccc5c(c4)OCO5)c3C)n(CC)c(=O)c12`, the IC90 is over 10 µM. Also, the concentration for half-maximal inhibition (IC50) (HEPG2TOX_HILL_SLOPE 1.63, HEPG2TOX_R_SQUARED 0.963, PBLUC_HILL_SLOPE 1.91, PBLUC_R_SQUARED 0.412, read-out: LUCIFERASE INFECTION ASSAY - IC50) came to 3.47 µM.

`N=C1C(=S)N(c2ccc(Cl)c(Cl)c2)C(=O)N1c1ccc(Cl)c(Cl)c1`: the IC90 was over 7.87 µM. Further, the IC50 under setting [1] is over 7.87 µM.

With `Cn1nc(-c2ccc(S(=O)(=O)Oc3cccc([N+](=O)[O-])c3)s2)cc1C(F)(F)F`, the IC90 was over 7.61 µM. Further, under setting [1], the IC50 is over 7.61 µM.

On to `CN(C)CCNC(=O)c1ccc(-c2cn3c(-c4ccc(N(C)C)cc4)cnc3cn2)cc1`, for which the concentration for an effect of 90% (IC90) is over 7.7 µM. Also, the IC50 under setting [1] is over 7.7 µM.

In the case of `CC(c1cccc(NC(=O)c2ccccc2)c1)N(C)c1ccc([N+](=O)[O-])cn1` (configuration not stated), the IC90 worked out at 1.3 µM. Further, the 50% inhibitory concentration (IC50) (HEPG2TOX_HILL_SLOPE 3.15, HEPG2TOX_R_SQUARED 0.897, PBLUC_HILL_SLOPE 11.5, PBLUC_R_SQUARED 0.814, read-out: LUCIFERASE INFECTION ASSAY - IC50) came out at 1.08 µM.

Take `COc1cccc(NC(=O)Nc2nc(-c3cc4ccccc4o3)cs2)c1`: the IC90 stood at 7.91 µM. In addition, where the note is “PBLUC_HILL_SLOPE 6.07, PBLUC_R_SQUARED 0.713, read-out: LUCIFERASE INFECTION ASSAY - IC50”, the half-inhibitory concentration (IC50) turned out to be 5.5 µM.

For the compound `CN(C)CCNCCCOc1ccc(C(C)(C)c2ccccc2)cc1`, the IC90 is over 10 µM. For the same compound, the IC50 (FFLUC_HILL_SLOPE 2.11, FFLUC_R_SQUARED 0.273, PBLUC_HILL_SLOPE 1.18, PBLUC_R_SQUARED 0.227, read-out: LUCIFERASE INFECTION ASSAY - IC50) came out at 5.92 µM.

In the case of `COc1ccc(Cl)cc1NC(=O)CCN1CCN(c2ncc(C(F)(F)F)cc2Cl)CC1`, the IC90 was 9.88 µM. Further, the concentration for half-maximal inhibition (IC50) under setting [1] was determined as 4.95 µM.

For the compound `CC1CCc2nc3ccccc3c(C(=O)OC(C)C(=O)NCCC3=CCCCC3)c2C1` (configuration not stated), the IC90 was over 10 µM. The IC50 under setting [1] is over 10 µM.

Regarding `COc1ccc(-c2csc3ncnc(Sc4nnnn4CC4CCCO4)c23)cc1` (configuration not stated), the IC90 was over 10 µM. The IC50 (HEPG2TOX_HILL_SLOPE 3.82, HEPG2TOX_R_SQUARED 0.683, PBLUC_HILL_SLOPE 2.52, PBLUC_R_SQUARED 0.576, read-out: LUCIFERASE INFECTION ASSAY - IC50) is 6.48 µM.

For `COc1ccc(C)cc1C(C)NC(=O)c1cnn(Cc2ccccc2)c1` (configuration not stated), the IC90 is over 10 µM. For the same compound, under setting [1], the IC50 is over 10 µM.

Turning to `O=C(Nc1nc2ccccn2c1C(=O)NC1CCCC1)c1ccc(Cl)cc1Cl`, the 90% effect concentration (IC90) was 2.66 µM. In addition, where the note is “HEPG2TOX_HILL_SLOPE 1.22, HEPG2TOX_R_SQUARED 0.989, PBLUC_HILL_SLOPE 22.2, PBLUC_R_SQUARED 0.579, read-out: LUCIFERASE INFECTION ASSAY - IC50”, the IC50 came to 2.41 µM.

Regarding `CN(C)C(=O)Cc1nc(CSc2nc3ncccn3n2)cs1`, the IC90 was over 10 µM. Further, the IC50 under setting [1] is over 10 µM.

Consider `CC(C)(C)c1ccc(CSc2nncn2-c2ccc(OCc3ccccc3)cc2)cc1`, for which the concentration for an effect of 90% (IC90) is over 7.68 µM. In addition, the IC50 (PBLUC_HILL_SLOPE 2.75, PBLUC_R_SQUARED 0.0661, read-out: LUCIFERASE INFECTION ASSAY - IC50) came to 5.39 µM.

Take `CSc1nnc(-c2csc(S(=O)(=O)Oc3cc(Cl)cc(Cl)c3)c2)n1C`: the IC90 was over 7.56 µM. Also, the IC50 under setting [1] was over 7.56 µM.

In the case of `Clc1cc2c(c3ncccc13)OCN(C1CCCC1)C2`, the IC90 is 2.79 µM. Further, under “FFLUC_HILL_SLOPE 11.1, FFLUC_R_SQUARED 0.223, HEPG2TOX_HILL_SLOPE 2.6, HEPG2TOX_R_SQUARED 0.787, PBLUC_HILL_SLOPE 4.7, PBLUC_R_SQUARED 0.818, read-out: LUCIFERASE INFECTION ASSAY - IC50”, the IC50 came out at 1.75 µM.

`COc1ccc(Nc2nccc3[nH]c(-c4ccsc4)cc23)cc1OC`: the 90% effect concentration (IC90) amounted to 7.38 µM. Besides, under “HEPG2TOX_HILL_SLOPE 8.96, HEPG2TOX_R_SQUARED 0.789, PBLUC_HILL_SLOPE 2.87, PBLUC_R_SQUARED 0.796, read-out: LUCIFERASE INFECTION ASSAY - IC50”, the IC50 was 3.43 µM.

Consider `COC(=O)c1c(NC(=O)c2ccoc2)c2cc(NCCc3ccccc3)cnc2n1Cc1ccccc1`, for which the IC90 is over 6.67 µM. Besides, the IC50 (FFLUC_HILL_SLOPE 1.52, FFLUC_R_SQUARED 0.257, PBLUC_HILL_SLOPE 25.4, PBLUC_R_SQUARED 0.141, read-out: LUCIFERASE INFECTION ASSAY - IC50) was over 6.67 µM.

On to `CC(NC(=O)c1cc(C2CC2)nn1-c1ccccc1)c1ccc(F)cc1F` (configuration not stated), for which the IC90 is over 10 µM. Further, where the note is “FFLUC_HILL_SLOPE 3.16, FFLUC_R_SQUARED 0.345, read-out: LUCIFERASE INFECTION ASSAY - IC50”, the IC50 was over 10 µM.

In the case of `Nc1nccnc1C(=O)Nc1nnc(-c2cccc(Br)c2)[nH]1`, the IC90 is over 10 µM. Under setting [1], the IC50 is over 10 µM.

Turning to `Fc1ccc(NC(=S)NC2CC3CC2C2C=CCC32)cc1` (configuration not stated), the IC90 was 8.13 µM. Besides, the IC50 (PBLUC_HILL_SLOPE 3.22, PBLUC_R_SQUARED 0.522, read-out: LUCIFERASE INFECTION ASSAY - IC50) worked out at 4.11 µM.

Consider `COc1ccc(C2C3CCc4ccccc4C3=NN2CCO)cc1` (configuration not stated), for which the IC90 is over 10.2 µM. Moreover, the IC50 (HEPG2TOX_HILL_SLOPE 8.7, HEPG2TOX_R_SQUARED 0.737, PBLUC_HILL_SLOPE 7.39, PBLUC_R_SQUARED 0.683, read-out: LUCIFERASE INFECTION ASSAY - IC50) is over 10.2 µM.

For the compound `O=C(NCc1ccccc1)c1cccc(C2(CNc3cccc(OC(F)(F)F)c3)CC2)c1`, the IC90 was over 10 µM. Also, under setting [1], the IC50 is over 10 µM.

For the compound `CC1CCC(NC(=O)[C@H](Cc2ccccc2)NC(=O)C(c2ccccc2)c2ccccc2)CC1` (some centres not stated), the IC90 was over 10 µM. Where the note is “PBLUC_HILL_SLOPE 2.1, PBLUC_R_SQUARED 0.545, read-out: LUCIFERASE INFECTION ASSAY - IC50”, the IC50 stood at 4.82 µM.

For `O=C(NC1CC1)c1ccc(-c2cnc3cnc(-c4ccc(CNc5ccccc5)cc4)cn23)cc1`, the IC90 was over 7.18 µM. The half-inhibitory concentration (IC50) (PBLUC_HILL_SLOPE 4.2, PBLUC_R_SQUARED 0.624, read-out: LUCIFERASE INFECTION ASSAY - IC50) amounted to 4.59 µM.

Regarding `COc1ccc(Nc2nc(S(=O)(=O)c3ccc(C)cc3)c(Cl)s2)cc1`, the IC90 is over 10 µM. Further, the IC50 (HEPG2TOX_HILL_SLOPE 11.4, HEPG2TOX_R_SQUARED 0.576, read-out: LUCIFERASE INFECTION ASSAY - IC50) is over 10 µM.

In the case of `COC(=O)c1ccc(COc2ccc(/C=N/Nc3ccnc4cc(Cl)ccc34)cc2OC)cc1`, the IC90 is over 10 µM. For the same compound, under setting [1], the IC50 was over 10 µM.

For the compound `CC(=O)Nc1ccc(S(=O)(=O)N(C)CC(=O)NCCC(=O)N2CCCC2)cc1`, the IC90 is over 10 µM. In addition, the IC50 under setting [1] was over 10 µM.

Turning to `CN(C)C(C(=O)c1ccccc1)C(c1ccc(F)cc1)c1ccc(F)cc1` (configuration not stated), the IC90 is over 10 µM. Under setting [1], the concentration for half-maximal inhibition (IC50) was over 10 µM.

In the case of `COc1cccc(NC(=O)N2CCc3nc(NCc4cccc(Oc5ccccc5)c4)ncc3C2)c1`, the IC90 worked out at 3.67 µM. In addition, the IC50 (HEPG2TOX_HILL_SLOPE 15.7, HEPG2TOX_R_SQUARED 0.806, PBLUC_HILL_SLOPE 104, PBLUC_R_SQUARED 0.398, read-out: LUCIFERASE INFECTION ASSAY - IC50) was 3.59 µM.

On to `Cn1c(CC(=O)NNC(=O)c2ccccc2Nc2ccccc2)nc2ccccc21`, for which the IC90 was found to be 3.3 µM. For the setting “HEPG2TOX_HILL_SLOPE 1.15, HEPG2TOX_R_SQUARED 0.894, PBLUC_HILL_SLOPE 16.3, PBLUC_R_SQUARED 0.746, read-out: LUCIFERASE INFECTION ASSAY - IC50”, the IC50 worked out at 2.88 µM.

The values are drawn from ChEMBL document CHEMBL4483862, “Open-source discovery of chemical leads for next-generation chemoprotective antimalarials” (2018).
